Experimental data as given in ChEMBL document CHEMBL1781873, “Synthesis and antibacterial property of pyrrolopyrano quinolinones and pyrroloquinolines” (2011).
Calls of active or inactive are those of the source. The calls are words filed in the database; no cut-off is given here.

Assays:
Pseudomonas aeruginosa [1] = test: Antibacterial activity against Pseudomonas aeruginosa at 10 ug after 24 hrs by disc diffusion assay; assay type: functional; details: read-out: IZ
Escherichia coli [2] = test: Antibacterial activity against Escherichia coli at 10 ug after 24 hrs by disc diffusion assay; assay type: functional; details: read-out: IZ
Klebsiella pneumoniae [3] = test: Antibacterial activity against Klebsiella pneumoniae at 5 ug after 24 hrs by disc diffusion assay; assay type: functional; details: read-out: IZ
Klebsiella pneumoniae [4] = test: Antibacterial activity against Klebsiella pneumoniae at 20 ug after 24 hrs by disc diffusion assay; assay type: functional; details: read-out: IZ
Pseudomonas aeruginosa [5] = test: Antibacterial activity against Pseudomonas aeruginosa at 25 ug after 24 hrs by disc diffusion assay; assay type: functional; details: read-out: IZ
Escherichia coli [6] = test: Antibacterial activity against Escherichia coli at 20 ug after 24 hrs by disc diffusion assay; assay type: functional; details: read-out: IZ
Escherichia coli [7] = test: Antibacterial activity against Escherichia coli at 15 ug after 24 hrs by disc diffusion assay; assay type: functional; details: read-out: IZ
Salmonella typhi [8] = test: Antibacterial activity against Salmonella typhi at 25 ug after 24 hrs by disc diffusion assay; assay type: functional, Salmonella enterica subsp. enterica serovar Typhi; details: Salmonella enterica, read-out: IZ
Salmonella typhi [9] = test: Antibacterial activity against Salmonella typhi at 20 ug after 24 hrs by disc diffusion assay; assay type: functional, Salmonella enterica subsp. enterica serovar Typhi; details: Salmonella enterica, read-out: IZ
Staphylococcus aureus [10] = test: Antibacterial activity against Staphylococcus aureus at 10 ug after 24 hrs by disc diffusion assay; assay type: functional; details: read-out: IZ
Staphylococcus aureus [11] = test: Antibacterial activity against Staphylococcus aureus at 5 ug after 24 hrs by disc diffusion assay; assay type: functional; details: read-out: IZ
Escherichia coli [12] = test: Inhibition of DNA gyrase mRNA expression in Escherichia coli measured up to 24 hrs by RT-PCR; assay type: functional, organism-based
Staphylococcus aureus [13] = test: Antibacterial activity against Staphylococcus aureus at 25 ug after 24 hrs by disc diffusion assay; assay type: functional; details: read-out: IZ
Salmonella typhi [14] = test: Antibacterial activity against Salmonella typhi at 15 ug after 24 hrs by disc diffusion assay; assay type: functional, Salmonella enterica subsp. enterica serovar Typhi; details: Salmonella enterica, read-out: IZ
Pseudomonas aeruginosa [15] = test: Antibacterial activity against Pseudomonas aeruginosa after 18 to 20 hrs by broth micro dilution assay; assay type: functional
Escherichia coli [16] = test: Antibacterial activity against Escherichia coli at 5 ug after 24 hrs by disc diffusion assay; assay type: functional; details: read-out: IZ
Bacillus subtilis [17] = test: Antibacterial activity against Bacillus subtilis at 25 ug after 24 hrs by disc diffusion assay; assay type: functional; details: read-out: IZ
Staphylococcus aureus [18] = test: Antibacterial activity against Staphylococcus aureus after 18 to 20 hrs by broth micro dilution assay; assay type: functional
Escherichia coli [19] = test: Antibacterial activity against Escherichia coli after 18 to 20 hrs by broth micro dilution assay; assay type: functional
Klebsiella pneumoniae [20] = test: Antibacterial activity against Klebsiella pneumoniae at 15 ug after 24 hrs by disc diffusion assay; assay type: functional; details: read-out: IZ
Pseudomonas aeruginosa [21] = test: Antibacterial activity against Pseudomonas aeruginosa at 20 ug after 24 hrs by disc diffusion assay; assay type: functional; details: read-out: IZ
Klebsiella pneumoniae [22] = test: Antibacterial activity against Klebsiella pneumoniae at 25 ug after 24 hrs by disc diffusion assay; assay type: functional; details: read-out: IZ
Salmonella typhi [23] = test: Antibacterial activity against Salmonella typhi after 18 to 20 hrs by broth micro dilution assay; assay type: functional, Salmonella enterica subsp. enterica serovar Typhi; details: Salmonella enterica
Escherichia coli [24] = test: Inhibition of Escherichia coli DNA gyrase -mediated DNA relaxation using pBR322 DNA as substrate at […] after 1 hrs by agarose gel electrophoresis
Escherichia coli [25] = test: Antibacterial activity against Escherichia coli at 25 ug after 24 hrs by disc diffusion assay; assay type: functional; details: read-out: IZ
Pseudomonas aeruginosa [26] = test: Antibacterial activity against Pseudomonas aeruginosa at 15 ug after 24 hrs by disc diffusion assay; assay type: functional; details: read-out: IZ
Bacillus subtilis [27] = test: Antibacterial activity against Bacillus subtilis at 15 ug after 24 hrs by disc diffusion assay; assay type: functional; details: read-out: IZ
Bacillus subtilis [28] = test: Antibacterial activity against Bacillus subtilis after 18 to 20 hrs by broth micro dilution assay; assay type: functional
Bacillus subtilis [29] = test: Antibacterial activity against Bacillus subtilis at 20 ug after 24 hrs by disc diffusion assay; assay type: functional; details: read-out: IZ
Escherichia coli [30] = test: Inhibition of Escherichia coli DNA gyrase assessed as inhibition of DNA supercoiling activity using pBR322 DNA as substrate at […] after 3 hrs by agarose gel electrophoresis
Staphylococcus aureus [31] = test: Antibacterial activity against Staphylococcus aureus at 20 ug after 24 hrs by disc diffusion assay; assay type: functional; details: read-out: IZ
Pseudomonas aeruginosa [32] = test: Antibacterial activity against Pseudomonas aeruginosa at 5 ug after 24 hrs by disc diffusion assay; assay type: functional; details: read-out: IZ
Salmonella typhi [33] = test: Antibacterial activity against Salmonella typhi at 5 ug after 24 hrs by disc diffusion assay; assay type: functional, Salmonella enterica subsp. enterica serovar Typhi; details: Salmonella enterica, read-out: IZ
Bacillus subtilis [34] = test: Antibacterial activity against Bacillus subtilis at 10 ug after 24 hrs by disc diffusion assay; assay type: functional; details: read-out: IZ
Klebsiella pneumoniae [35] = test: Antibacterial activity against Klebsiella pneumoniae after 18 to 20 hrs by broth micro dilution assay; assay type: functional
Klebsiella pneumoniae [36] = test: Antibacterial activity against Klebsiella pneumoniae at 10 ug after 24 hrs by disc diffusion assay; assay type: functional; details: read-out: IZ
Salmonella typhi [37] = test: Antibacterial activity against Salmonella typhi at 10 ug after 24 hrs by disc diffusion assay; assay type: functional, Salmonella enterica subsp. enterica serovar Typhi; details: Salmonella enterica, read-out: IZ
Staphylococcus aureus [38] = test: Antibacterial activity against Staphylococcus aureus at 15 ug after 24 hrs by disc diffusion assay; assay type: functional; details: read-out: IZ

CCC1[C@@H]2c3c(c4ccccc4n(C)c3=O)OC(C)(C)[C@H]2CN1OS(=O)(=O)c1ccc(C)cc1 (mixture of isomers)
zone of inhibition at 10 µg/disc (Pseudomonas aeruginosa [1]): 16 mm
zone of inhibition at 10 µg/disc (Escherichia coli [2]): 16 mm
zone of inhibition at 5 µg/disc (Klebsiella pneumoniae [3]): 20 mm
zone of inhibition at 20 µg/disc (Klebsiella pneumoniae [4]): 34 mm
zone of inhibition at 25 µg/disc (Pseudomonas aeruginosa [5]): 24 mm
zone of inhibition at 20 µg/disc (Escherichia coli [6]): 20 mm
zone of inhibition at 15 µg/disc (Escherichia coli [7]): 18 mm
zone of inhibition at 25 µg/disc (Salmonella typhi [8]): 22 mm
zone of inhibition at 20 µg/disc (Salmonella typhi [9]): 20 mm
zone of inhibition at 10 µg/disc (Staphylococcus aureus [10]): 12 mm
zone of inhibition at 5 µg/disc (Staphylococcus aureus [11]): 9 mm
inhibition of gyrase mRNA expression (active/not active) (Escherichia coli [12]): Active
zone of inhibition at 25 µg/disc (Staphylococcus aureus [13]): 17 mm
zone of inhibition at 15 µg/disc (Salmonella typhi [14]): 18 mm
MIC50 (Pseudomonas aeruginosa [15]): 0.5 mg/L
MIC90 (Pseudomonas aeruginosa [15]): 0.5 mg/L
zone of inhibition at 5 µg/disc (Escherichia coli [16]): 10 mm
zone of inhibition at 25 µg/disc (Bacillus subtilis [17]): 12 mm
MIC50 (Staphylococcus aureus [18]): 0.5 mg/L
MIC90 (Staphylococcus aureus [18]): 0.5 mg/L
MIC50 (Escherichia coli [19]): 0.5 mg/L
MIC90 (Escherichia coli [19]): 1 mg/L
zone of inhibition at 15 µg/disc (Klebsiella pneumoniae [20]): 30 mm
zone of inhibition at 20 µg/disc (Pseudomonas aeruginosa [21]): 22 mm
zone of inhibition at 25 µg/disc (Klebsiella pneumoniae [22]): 36 mm
MIC50 (Salmonella typhi [23]): 0.5 mg/L
MIC90 (Salmonella typhi [23]): 0.5 mg/L
inhibition (Escherichia coli [24]): Active
zone of inhibition at 25 µg/disc (Escherichia coli [25]): 23 mm
zone of inhibition at 15 µg/disc (Pseudomonas aeruginosa [26]): 17 mm
zone of inhibition at 15 µg/disc (Bacillus subtilis [27]): 9 mm
MIC50 (Bacillus subtilis [28]): 0.5 mg/L
MIC90 (Bacillus subtilis [28]): 0.5 mg/L
zone of inhibition at 20 µg/disc (Bacillus subtilis [29]): 10 mm
DNA gyrase inhibition (active/inactive) (Escherichia coli [30]): Active
zone of inhibition at 20 µg/disc (Staphylococcus aureus [31]): 14 mm
zone of inhibition at 5 µg/disc (Pseudomonas aeruginosa [32]): 10 mm
zone of inhibition at 5 µg/disc (Salmonella typhi [33]): 10 mm
zone of inhibition at 10 µg/disc (Bacillus subtilis [34]): 7 mm
MIC50 (Klebsiella pneumoniae [35]): 0.5 mg/L
MIC90 (Klebsiella pneumoniae [35]): 0.5 mg/L
zone of inhibition at 10 µg/disc (Klebsiella pneumoniae [36]): 26 mm
zone of inhibition at 10 µg/disc (Salmonella typhi [37]): 16 mm
zone of inhibition at 15 µg/disc (Staphylococcus aureus [38]): 13 mm
